{"source": "patent US20260356879A1", "about": "“CELASTROL DERIVATIVES” (Celloram Inc., priority 2022, published 2026)", "key": {"NLRP3 inflammasome [1]": {"test_system": "NLRP3 inflammasome", "assay": "Detection of ASC complex and caspase-1 activity in THP-1 cells by Amnis imaging flow cytometry", "assay_type": "cell-based, human", "conditions": "THP-1, LPS+Nigericin", "method": "FIG. 3A shown images of western blot analysis of THP1 cells treated with LPS, and compound 1 (CLM-001) or compound 22, followed by Nigericin for NLRP3 inflammasome activation. The inflammasome ASC complex in the control cells (LPS+Nigericin) was compared with the treatment of compound 1 (CLM-001) (50 nM, 100 nM), compound 22 (CLM-022) (50 nM, 100 nM), and MCC950 (100 nM, 200 nM). FLICA (green) represents active caspase-1, ASC (red) complex is shown as a red speckle near the nucleus membrane, and DAPI stain for nucleus (blue) captured in the AMNIS analysis. FIG. 3B depicts the cell numbers stained as ASC+ (red) and FLICA+ (green) in the AMNIS were counted in order to compare the level of NLRP3 inflammasome activity in the cells treated as indicated (left). The ASC+ and FLICA+ cells were also plotted as a percentage of total cell count (right). […]\nAmnis Imaging flow cytometry (Luminex Co.) is a high-throughput, single-cell, fluorescence-based image analysis method which can detect inflammasome by acquiring images of cellular distribution of ASC complex and active caspase-1. […] The treated cells were subjected to ASC staining and visualization of active caspase-1 using FLICA, a caspase-1 substrate exerting fluorescence upon cleavage. Finally, the ASC+/FLICA+ cells were counted as THP-1 cells with active NLRP3 inflammasome complex."}, "NLRP3 inflammasome [2]": {"test_system": "NLRP3 inflammasome", "assay": "Secreted IL-1β in conditioned media of BMDC (ELISA), LPS+ATP or LPS+Nigericin", "assay_type": "cell-based", "conditions": "63-500 nM, FIG. 2B", "method": "FIG. 2A depicts western blot images showing the relative NLRP3 inflammasome activity of the compounds 22 (CLM-022) and 1 (CLM-001) by detecting the level of cellular ASC complex and the mature form of IL-1β (15 kDa) in a conditioned media of BMDCs treated with LPS (100 ng/ml) for 3 hours and then the compound at 50 nM, 100 nM, and 500 nM concentration for 30 min, followed by ATP or Nigericin. ASC monomer and β-Actin proteins were used as controls. FIG. 2B depict plots of results showing secreted IL-1β levels measured by ELISA using conditioned media of BMDC treated with the compound 22 or compound 1 at 63 nM, 125 nM, 250 nM, and 500 nM, under NLRP3 inflammasome activation induced either by LPS+ATP or LPS+Nigericin. FIG. 2C depict plots of results showing secreted TNF-α levels measured by ELISA using conditioned media of BMDC treated with the compound 22 or compound 1 at 63 nM, 125 nM, 250 nM, and 500 nM, under NLRP3 inflammasome activation induced either by LPS+ATP or LPS+Nigericin.\n1. […] After 30 minutes Nigericin (10 μM) or ATP (5 mM) was added (Signal 2) and the level of NLRP3-dependent inflammasome activity was determined by western blotting the treated cells with ASC complex (>48 kDa). […]"}, "GSDMD and Caspase-1": {"test_system": "GSDMD and Caspase-1", "assay": "GSDMD and Caspase-1 cleavage in THP-1 cells (western blot)", "assay_type": "cell-based", "conditions": "Homo sapiens; THP-1, western blot; FIG. 7C; read-out: concentration inhibiting GSDMD and Caspase-1 cleavage", "excerpt": "(§1) Pyroptosis, a pro-inflammatory form of cell death, is triggered by the activation of NLRP3 inflammasome components (GSDMD and Caspase-1), leading to the release of pro-inflammatory cytokines IL-1β and IL-18, as well as damage-associated molecular patterns (DAMPs). This process elicits a cascade of inflammatory responses, which can persist if dysregulated in affected tissues. Given the significant inhibitory potential of CLM-022 against NLRP3 inflammasome and IL-1β secretion, it was proposed that CLM-022 could effectively enhance cell viability by inhibiting pyroptosis in the context of inflammation and inflammasome activation. This example illustrates a comparative study of the abilities of CLM-022 and MCC950 to protect THP-1 cells from inflammasome-induced pyroptosis.\n(§2) After LPS and Nigericin treatment, THP-1 cells were treated with either CLM-022 or MCC950 over a dosage range of 0 μM to 10 μM and cell viability was determined by impermeant live/dead staining dye and flow cytometric analysis. Additionally, NLRP3 inflammasome-induced cytotoxicity was investigated by measuring the level of LDH in the conditioned media after the CLM-022 and MCC950 treatments. Further, Western blotting of samples from the THP-1 cell viability assays was carried out to determine levels of the pyroptosis-mediating molecules, GSDMD and Caspase-1."}, "THP-1 cells": {"test_system": "THP-1 cells", "assay": "THP-1 cell viability (inflammasome-induced pyroptosis), live/dead staining and flow cytometry", "assay_type": "cell-based, human", "conditions": "THP-1, LPS and Nigericin, 0 μM to 10 μM; FIG. 7A", "excerpt": "as §1, §2"}}, "note": "“Also recorded” adds a separate entry of the source."}
{"smiles": "CC1=C(O)C(=O)C=C2C1=CC=C1[C@@]2(C)CC[C@@]2(C)[C@@H]3C[C@](C)(N(C)C(=O)C(=O)N(C)C)CC[C@]3(C)CC[C@]12C", "note": "[Compound 22, N′-[(2R,4aS,6aR,6aS,14aS,14bR)-10-hydroxy-2,4a,6a,6a,9,14a-hexamethyl-11-oxo-1,3,4,5,6,13,14,14b-octahydropicen-2-yl]-N,N,N′-trimethyl-oxamide]", "values": [{"measurement": "minimal effective concentration", "setting": "NLRP3 inflammasome [1]; Homo sapiens, FIG. 3C, read-out: concentration at which a strong inhibitory function was observed (as low as)", "result": "≤ 0.025", "unit": "µM"}, {"measurement": "inhibition of cellular ASC+FLICA+ specks / inflammasome complex", "setting": "NLRP3 inflammasome [1]; FIG. 3B", "result": "strong inhibitory effect; also recorded: inhibited NLRP3 inflammasome activity in THP1 and the cellular inflammasome complex as visualized by Amnis analysis"}, {"measurement": "inhibition of IL-1β secretion", "setting": "NLRP3 inflammasome [2]", "result": "more strongly inhibited IL-1β secretion induced by both LPS+ATP and LPS+Nigericin; also recorded: strongly inhibited IL-1β secretion via suppression of NLRP3 inflammasome"}, {"measurement": "minimal effective concentration", "setting": "GSDMD and Caspase-1", "result": "≤ 0.1", "unit": "µM"}, {"measurement": "increase in cell viability", "setting": "THP-1 cells", "result": "up to 60%"}]}
